Assay: in vitro
Settings: human, Caco-2, pH 7.4
Experimental: Caco-2 cells were grown to confluence on collagen-coated, microporous, polycarbonate membranes in 12-well Costar Transwell plates. 5 μM of compound 52 was prepared in Hanks balanced salt solution containing 10 mM HEPES and 15 mM glucose at a pH of 7.4. Cell monolayers were dosed on the apical side (A-to-B) or basolateral side (B-to-A). Samples were taken from the receiver chambers at 120 min and quantified by LC-MS/MS.

COc1ccc2c(O[C@H]3CCN4C(=O)N(C)CCCC/C=C\[C@@H]5C[C@@]5(C(=O)NS(=O)(=O)C5(C)CC5)NC(=O)[C@@H]4C3)cc(-c3nc(C(F)(F)F)cs3)nc2c1C [Compound 52, 1-methyl-cyclopropanesulfonic acid{(Z)-(1S,4R,6S,18S)-18-[7-methoxy-8-methyl-2-(4-trifluoromethyl-thiazol-2-yl)-quinolin-4-yloxy]-13-methyl-2,14-dioxo-3,13,15-triaza-tricyclo[13.4.0.0*4,6*]nonadec-7-ene-4-carbonyl}amide]
Papp: 1.8 ×10⁻⁶ cm/s | efflux ratio: 2.7

Reference: patent US8993595B2, “Macrocyclic serine protease inhibitors” (priority 2009, dated 2015)
